We go through 12 molecules from patent US7595337B2, “Mitotic kinesin inhibitors” (Merck & Co. Inc., priority 2005, dated 2009).

In this assay the target is T1, human poly-histidine tagged KSP motor domain (KSP(367H)) (Homo sapiens, UniProt P52732).
T1 construct: were used to amplify the motor domain and the neck linker region; made in house; host or cells: E. coli BL21 (DE3), pRSETa
T1 sequence (P52732 18-359 limits assumed): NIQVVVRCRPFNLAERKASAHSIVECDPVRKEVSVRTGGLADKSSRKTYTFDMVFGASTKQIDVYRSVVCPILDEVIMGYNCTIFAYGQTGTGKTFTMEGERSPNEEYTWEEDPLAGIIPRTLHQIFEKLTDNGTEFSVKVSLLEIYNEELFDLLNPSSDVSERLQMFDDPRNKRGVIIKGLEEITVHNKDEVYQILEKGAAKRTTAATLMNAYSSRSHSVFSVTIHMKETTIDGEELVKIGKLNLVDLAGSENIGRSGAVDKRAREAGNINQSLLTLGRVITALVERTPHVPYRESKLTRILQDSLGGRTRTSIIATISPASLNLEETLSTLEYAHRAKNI
Put plainly: Kinesin ATPase In Vitro Assay. The assay is classed as biochemical. The following applies: for IC50: microtubules, 1 mM ATP, 23° C., quinaldine red/ammonium molybdate phosphate readout. The source says:
I. Kinesin ATPase In Vitro Assay
Cloning and expression of human poly-histidine tagged KSP motor domain (KSP(367H)): Plasmids for the expression of the human KSP motor domain construct were cloned by PCR using a pBluescript full length human KSP construct (Blangy et al., Cell, vol. 83, pp 1159-1169, 1995) as a template. The N-terminal primer 5′-[…] (SEQ. ID. NO.: 1) and the C-terminal primer 5′-[…] […] (SEQ. ID. NO.: 2)
were used to amplify the motor domain and the neck linker region. The PCR products were digested with AseI and XhoI, ligated into the NdeI/XhoI digestion product of pRSETa (Invitrogen) and transformed into E. coli BL21 (DE3).
Cells were grown at 37° C. to an OD600 of 0.5. After cooling the culture to room temperature expression of KSP was induced with 100 μM IPTG and incubation was continued overnight. Cells were pelleted by centrifugation and washed once with ice-cold PBS. Pellets were flash-frozen and stored −80° C.
Protein Purification: Cell pellets were thawed on ice and resuspended in lysis buffer (50 mM K-HEPES, pH 8.0, 250 mM KCl, 0.1% Tween, 10 mM imidazole, 0.5 mM Mg-ATP, 1 mM PMSF, 2 mM benzimidine, 1× complete protease inhibitor cocktail (Roche)). Cell suspensions were incubated with 1 mg/ml lysozyme and 5 mM β-mercaptoethanol on ice for 10 minutes, followed by sonication (3×30 sec). All subsequent procedures were performed at 4° C. Lysates were centrifuged at 40,000×g for 40 minutes. Supernatants were diluted and loaded onto an SP Sepharose column (Pharmacia, 5 ml cartridge) in buffer A (50 mM K-HEPES, pH 6.8, 1 mM MgCl2, 1 mM EGTA, 10 μM Mg-ATP, 1 mM DTT) and eluted with a 0 to 750 mM KCl gradient in buffer A. Fractions containing KSP were pooled and incubated with Ni-NTA resin (Qiagen) for one hour. The resin was washed three times with buffer B (Lysis buffer minus PMSF and protease inhibitor cocktail), followed by three 15-minute incubations and washes with buffer B. Finally, the resin was incubated and washed for 15 minutes three times with buffer C (same as buffer B except for pH 6.0) and poured into a column. KSP was eluted with elution buffer (identical to buffer B except for 150 mM KCl and 250 mM imidazole). KSP-containing fractions were pooled, made 10% in sucrose, and stored at −80° C.
Microtubules are prepared from tubulin isolated from bovine brain. Purified tubulin (>97% MAP-free) at 1 mg/ml is polymerized at 37° C. in the presence of 10 μM paclitaxel, 1 mM DTT, 1 mM GTP in BRB80 buffer (80 mM K-PIPES, 1 mM EGTA, 1 mM MgCl2 at pH 6.8). The resulting microtubules are separated from non-polymerized tubulin by ultracentrifugation and removal of the supernatant. The pellet, containing the microtubules, is gently resuspended in 10 μM paclitaxel, 1 mM DTT, 50 μg/ml ampicillin, and 5 μg/ml chloramphenicol in BRB80.
The kinesin motor domain is incubated with microtubules, 1 mM ATP (1:1 MgCl2: Na-ATP), and compound at 23° C. in buffer containing 80 mM K-HEPES (pH 7.0), 1 mM EGTA, 1 mM DTT, 1 mM MgCl2, and 50 mM KCl. The reaction is terminated by a 2-10 fold dilution with a final buffer composition of 80 mM HEPES and 50 mM EDTA. Free phosphate from the ATP hydrolysis reaction is measured via a quinaldine red/ammonium molybdate assay by adding 150 μl of quench C buffer containing a 2:1 ratio of quench A:quench B. Quench A contains 0.1 mg/ml quinaldine red and 0.14% polyvinyl alcohol; quench B contains 12.3 mM ammonium molybdate tetrahydrate in 1.15 M sulfuric acid. The reaction is incubated for 10 minutes at 23° C., and the absorbance of the phosphomolybdate complex is measured at 540 nm.

Take `CC(=O)N1N=C2c3cc(F)ccc3OCC2C1(C)c1ccccc1` (mixture of isomers) [Compound 2-2, 2-acetyl-8-fluoro-3-methyl-3-phenyl-2,3,3a,4-tetrahydrochromeno[4,3-c]pyrazole]: the IC50 (as a rule, the point on the concentration scale where inhibition reaches its midpoint) was not above 30 µM.

The molecule `CC(=O)N1N=C2c3cc(F)ccc3OCC2C1(CCC1OCCCO1)c1ccccc1` (mixture of isomers) [Compound 5-4, 2-acetyl-3-[2-(1,3-dioxan-2-yl)ethyl]-8-fluoro-3-phenyl-2,3,3a,4-tetrahydrochromeno[4,3-c]pyrazole] gave an IC50 not above 30 µM. Molecule `CC(=O)N1CCN(CCC[C@@]2(c3ccccc3)[C@H]3COc4ccc(F)cc4C3=NN2C(C)=O)CC1` (relative stereo) [Compound 4-1, cis-2-acetyl-3-[3-(4-acetylpiperazin-1-yl)propyl]-8-fluoro-3-phenyl-2,3,3a,4-tetrahydrochromeno[4,3-c]pyrazole] showed an IC50 not above 30 µM. Take `CC(=O)N1CCN(CCC[C@@]2(c3ccccc3)[C@@H]3COc4ccc(F)cc4C3=NN2C(C)=O)CC1` (single isomer, unassigned) [Compound 5-5]: the IC50 was not above 30 µM. In addition, under “assay not named”, the “activity of resolved enantiomer (active / inactive)” value (“activity … (active / inactive)” for short) is “active”. For `CC(=O)N1CCN(CCC[C@@]2(c3ccccc3)[C@H]3COc4ccc(F)cc4C3=NN2C(C)=O)CC1` (single isomer, unassigned) [Compound 5-6] the same measures were not above 30 µM and “active”. `CC(=O)N1N=C2c3cc(F)ccc3OCC2C1c1ccccc1` (centres unmarked) [Compound 1-2, 2-acetyl-8-fluoro-3-phenyl-2,3,3a,4-tetrahydrochromeno[4,3-c]pyrazole] returned an IC50 not above 30 µM. Also, the “relative inhibitory activity of the diastereomers” value (the cis diastereomer (eluted second) compared with the other, assay not named) was “higher inhibitory activity”. `CC(=O)N1N=C2c3cc(F)ccc3OC[C@H]2[C@H]1c1ccccc1` [Compound 1-3, (3S,3aS)-2-acetyl-8-fluoro-3-phenyl-2,3,3a,4-tetrahydrochromeno[4,3-c]pyrazole] came in with an IC50 not above 30 µM. The “activity … (active / inactive)” value (assay not named) is “active”. `O=C(N1N=C2c3cc(F)ccc3OCC2C1(CCCO)c1ccccc1)C(F)(F)F` (centres unmarked) [Compound 3-7, 3-[8-fluoro-3-phenyl-2-(trifluoroacetyl)-2,3,3a,4-tetrahydrochromeno[4,3-c]pyrazol-3-yl]propan-1-ol] yielded an IC50 not above 30 µM.

`CC(=O)N1CCN(CCCC2(c3ccccc3)C3COc4ccc(F)cc4C3=NN2C(=O)C(F)(F)F)CC1` (centres unmarked) [Compound 3-8, 3-[3-(4-acetylpiperazin-1-yl)propyl]-8-fluoro-3-phenyl-2-(trifluoroacetyl)-2,3,3a,4-tetrahydrochromeno[4,3-c]pyrazole] had an IC50 not above 30 µM. On to `CC(=O)N1CCN(CCC[C@@]2(c3ccccc3)[C@@H]3COc4ccc(F)cc4C3=NN2C(=O)C(F)(F)F)CC1` [Compound 3-9, (3S,3aS)-3-[3-(4-acetylpiperazin-1-yl)propyl]-8-fluoro-3-phenyl-2-(trifluoroacetyl)-2,3,3a,4-tetrahydrochromeno[4,3-c]pyrazole], for which the IC50 was not above 30 µM. For the setting “assay not named”, the “activity … (active / inactive)” value is “active”. Molecule `CN(C)CCCC1(c2ccccc2)C2COc3ccc(F)cc3C2=NN1C(=O)C(F)(F)F` (centres unmarked) [Compound 3-10, {3-[8-fluoro-3-phenyl-2-(trifluoroacetyl)-2,3,3a,4-tetrahydrochromeno[4,3-c]pyrazol-3-yl]propyl}dimethylamine] showed an IC50 not above 30 µM. Still for that read-out and setting: the same measure for `O=C(N1N=C2c3cc(F)ccc3OCC2C1(CCCN1CCOCC1)c1ccccc1)C(F)(F)F` (centres unmarked) [Compound 3-11, 8-fluoro-3-(3-morpholin-4-ylpropyl)-3-phenyl-2-(trifluoroacetyl)-2,3,3a,4-tetrahydrochromeno[4,3-c]pyrazole]: not above 30 µM.
